“And” between values parts separate entries of the source, which are not always exact repeats. Identical values can stand only once.

This test concerns Phakopsora pachyrhizi. The test can be described thus: Glasshouse pot trial: efficacy on soybean rust on soybean (Glycine max), visual estimation of degree of infection on leaves. The test is classed as in vivo. On the procedure:
In the tables presented below, the following terms have the following meaning:
Glasshouse pot trials were conducted to evaluate the effect and efficacy of silthiofam on soybean rust disease on soybean (Glycine max).
The trial was divided in 11 treatments. In 4 of the treatments, silthiofam was applied in different amounts.
Silthiofam compositions used in this trial were prepared from the suspension concentrate containing 125 g/L of silthiofam, diluted with water to predetermined concentration and sprayed on the plants in the predetermined amounts.
In two of the treatments, silthiofam was applied in combination with additional ingredients.
First combination was of silthiofam and chitosan, wherein silthiofam was applied in an amount of 250 g/ha on the plant first and chitosan was applied subsequently in an amount of 200 g/ha.
Second combination was a combination of silthiofam and tagatose, wherein silthiofam was applied in an amount of 250 g/ha simultaneously with tagatose in an amount of 200 g/ha.
Further 6 treatments were current market available treatments of soybean rust applied in the label prescribed dose, wherein the compositions used were prepared from commercially available products prepared according to the respective label instructions and sprayed on the plants.
One treatment of the trial consisted of fungi inoculated plants which received no treatment.
Soybean plants were treated two times with silthiofam and other treatments. First treatment was applied when soybean plants reached stage BBCH16 and the second treatment was applied when soybean plants reached stage BBCH61. Growth stages were defined according to Compendium of Growth Stage Identification Keys for Mono- and Dicotyledonous Plants, Extended BBCH scale, 2nd Edition 1997, ISBN 3-9520749-3-4.
After silthiofam and other treatments were applied first time, plants were inoculated with Phakopsora pachyrhizi spores and evaluation of leaves condition and disease spread was done every 7 days.
Method used for evaluation of disease spread was visual estimation of degree of infection on leaves.
The experimental design of the pot trial was randomized design with 4 pot replications per treatment applied, wherein six soybean plants were planted per pot.
Treatments were the following:
Treatment 1: Plant inoculated with P. pachyrhizi, no treatment applied
Treatment 2: Treatment with flutriafol and azoxystrobin mixture, applied in concentration of 31.25 g flutriafol/ha and 37.5 g azoxystrobin/ha
Treatment 3: Silthiofam treatment applied in 250 g silthiofam/ha
Treatment 4: Silthiofam treatment applied in 500 g silthiofam/ha
Treatment 5: Silthiofam treatment applied in 250 g silthiofam/ha and 200 g/ha of tagatose
Treatment 6: Silthiofam treatment applied in 250 g silthiofam/ha and 200 g/ha of chitosan
Treatment 7: Mancozeb applied in 1.68 kg mancozeb/ha
Treatment 8: Chlorothalonil applied in 626.4 g chlorothalonil/ha
Treatment 9: Azoxystrobin applied in 37.5 g azoxystrobin/ha
Treatment 10: Boscalid applied in 294 g boscalid/ha
Treatment 11: Prothioconazole and tebuconazole mixture applied as 42 g prothioconazole/ha and 84 g tebuconazole/ha

As for `CO/C=C(/C(=O)OC)c1ccccc1Oc1cc(Oc2ccccc2C#N)ncn1` [Azoxystrobin], the “% efficacy” value reads like this: (azoxystrobin 37.5 g/ha, 7/7 d after first/last application, 19 d after planting, LEALOW) 64.3% and 72.8% and 67.8% and 77.8%; (azoxystrobin 37.5 g/ha, 7/7 d after first/last application, 19 d after planting, LEAMID) 73.4% and 88.9% and 81.9% and 100.0%; (azoxystrobin 37.5 g/ha, 7/7 d after first/last application, 19 d after planting, LEAUPP) 100.0%; (azoxystrobin 37.5 g/ha, 14/14 d after first/last application, 26 d after planting, LEALOW) 85.0% and 79.0% and 84.1% and 80.6%; (azoxystrobin 37.5 g/ha, 14/14 d after first/last application, 26 d after planting, LEAMID) 92.0% and 94.5% and 90.0% and 89.4%; (azoxystrobin 37.5 g/ha, 14/14 d after first/last application, 26 d after planting, LEAUPP) 98.6% and 90.8% and 98.7%. Also, the “% efficacy” value runs as follows: (azoxystrobin 37.5 g/ha, 21/21 d after first/last application, 33 d after planting, LEALOW) 72.0% and 65.0% and 59.0% and 60.0%; (azoxystrobin 37.5 g/ha, 21/21 d after first/last application, 33 d after planting, LEAMID) 82.0% and 79.0% and 90.0% and 78.0%; (azoxystrobin 37.5 g/ha, 21/21 d after first/last application, 33 d after planting, LEAUPP) 100.0%; (azoxystrobin 37.5 g/ha, 28/7 d after first/last application, 40 d after planting, LEALOW) 54.0% and 67.0% and 65.0% and 62.0%; (azoxystrobin 37.5 g/ha, 28/7 d after first/last application, 40 d after planting, LEAMID) 82.0% and 85.0% and 88.0%; (azoxystrobin 37.5 g/ha, 28/7 d after first/last application, 40 d after planting, LEAUPP) 100.0%. Moreover, the “% efficacy” value reads like this: (azoxystrobin 37.5 g/ha, 35/14 d after first/last application, 47 d after planting, LEAMID) 85.0% and 88.0% and 82.0%; (azoxystrobin 37.5 g/ha, 35/14 d after first/last application, 47 d after planting, LEAUPP) 100.0% and 98.9%; (azoxystrobin 37.5 g/ha, 42/21 d after first/last application, 54 d after planting, LEAMID) 52.0% and 62.0% and 56.0% and 58.0%; (azoxystrobin 37.5 g/ha, 42/21 d after first/last application, 54 d after planting, LEAUPP) 82.0% and 85.0% and 86.0%.

Turning to `O=C(Nc1ccccc1-c1ccc(Cl)cc1)c1cccnc1Cl` [Boscalid], the “% efficacy” value is, setting by setting: (boscalid 294 g/ha, 7/7 d after first/last application, 19 d after planting, LEALOW) 85.8% and 86.4% and 93.6% and 100.0%; (boscalid 294 g/ha, 7/7 d after first/last application, 19 d after planting, LEAMID) 100.0%; (boscalid 294 g/ha, 7/7 d after first/last application, 19 d after planting, LEAUPP) 100.0%; (boscalid 294 g/ha, 14/14 d after first/last application, 26 d after planting, LEALOW) 76.0% and 80.0% and 78.0%; (boscalid 294 g/ha, 14/14 d after first/last application, 26 d after planting, LEAMID) 90.0% and 86.8% and 88.0% and 85.1%; (boscalid 294 g/ha, 14/14 d after first/last application, 26 d after planting, LEAUPP) 98.6% and 92.6% and 98.7%. The “% efficacy” value reads like this: (boscalid 294 g/ha, 21/21 d after first/last application, 33 d after planting, LEALOW) 55.0% and 42.0% and 38.0% and 35.0%; (boscalid 294 g/ha, 21/21 d after first/last application, 33 d after planting, LEAMID) 56.0% and 49.0% and 55.0% and 52.0%; (boscalid 294 g/ha, 21/21 d after first/last application, 33 d after planting, LEAUPP) 91.9% and 88.9% and 89.4% and 92.9%; (boscalid 294 g/ha, 28/7 d after first/last application, 40 d after planting, LEALOW) 49.0% and 52.0% and 51.0% and 44.0%; (boscalid 294 g/ha, 28/7 d after first/last application, 40 d after planting, LEAMID) 44.0% and 48.0% and 56.0% and 52.0%; (boscalid 294 g/ha, 28/7 d after first/last application, 40 d after planting, LEAUPP) 85.9% and 100.0% and 93.1% and 85.7%. Also, the “% efficacy” value by setting is: (boscalid 294 g/ha, 35/14 d after first/last application, 47 d after planting, LEAMID) 35.0% and 42.0% and 48.0% and 43.0%; (boscalid 294 g/ha, 35/14 d after first/last application, 47 d after planting, LEAUPP) 83.6% and 82.0% and 77.3% and 82.2%; (boscalid 294 g/ha, 42/21 d after first/last application, 54 d after planting, LEAUPP) 75.0% and 67.0% and 64.0% and 72.0%.

Regarding `N#Cc1c(Cl)c(Cl)c(Cl)c(C#N)c1Cl` [Chlorothalonil], the “% efficacy” value by setting is: (chlorothalonil 626.4 g/ha, 7/7 d after first/last application, 19 d after planting, LEALOW) 35.8% and 65.9% and 54.9% and 50.0%; (chlorothalonil 626.4 g/ha, 7/7 d after first/last application, 19 d after planting, LEAUPP) 100.0%; (chlorothalonil 626.4 g/ha, 14/14 d after first/last application, 26 d after planting, LEALOW) 75.0% and 69.0% and 68.1% and 59.2%; (chlorothalonil 626.4 g/ha, 14/14 d after first/last application, 26 d after planting, LEAMID) 85.0% and 80.2% and 79.0% and 67.1%; (chlorothalonil 626.4 g/ha, 14/14 d after first/last application, 26 d after planting, LEAUPP) 88.3% and 81.5% and 78.9% and 80.0%; (chlorothalonil 626.4 g/ha, 21/21 d after first/last application, 33 d after planting, LEALOW) 55.0% and 40.0% and 44.0% and 45.0%. The “% efficacy” value was 72.0% and 70.0% and 65.0% and 62.0% (chlorothalonil 626.4 g/ha, 21/21 d after first/last application, 33 d after planting, LEAMID); 82.3% and 80.6% and 72.0% and 64.3% (chlorothalonil 626.4 g/ha, 21/21 d after first/last application, 33 d after planting, LEAUPP); 22.0% and 34.0% and 32.0% and 26.0% (chlorothalonil 626.4 g/ha, 28/7 d after first/last application, 40 d after planting, LEALOW); 56.0% and 52.0% and 55.0% and 54.0% (chlorothalonil 626.4 g/ha, 28/7 d after first/last application, 40 d after planting, LEAMID); 74.4% and 70.6% and 70.9% and 76.7% (chlorothalonil 626.4 g/ha, 28/7 d after first/last application, 40 d after planting, LEAUPP); 52.0% and 44.0% and 48.0% and 42.0% (chlorothalonil 626.4 g/ha, 35/14 d after first/last application, 47 d after planting, LEAMID). For the same molecule, the “% efficacy” value is, setting by setting: (chlorothalonil 626.4 g/ha, 35/14 d after first/last application, 47 d after planting, LEAUPP) 63.8% and 69.0% and 68.0%; (chlorothalonil 626.4 g/ha, 42/21 d after first/last application, 54 d after planting, LEAUPP) 52.0% and 45.0% and 42.0% and 48.0%.

For Mancozeb, the “% efficacy” value (mancozeb 1.68 kg/ha, 7/7 d after first/last application, 19 d after planting, LEALOW) is 50.0% and 65.9% and 64.6% and 61.2%; the “% efficacy” value (mancozeb 1.68 kg/ha, 7/7 d after first/last application, 19 d after planting, LEAMID) is 46.7% and 72.3% and 54.6% and 50.0%; the “% efficacy” value (mancozeb 1.68 kg/ha, 7/7 d after first/last application, 19 d after planting, LEAUPP) is 100.0%; the “% efficacy” value (mancozeb 1.68 kg/ha, 14/14 d after first/last application, 26 d after planting, LEALOW) was 67.0% and 75.0% and 56.4% and 64.3%; the “% efficacy” value (mancozeb 1.68 kg/ha, 14/14 d after first/last application, 26 d after planting, LEAMID) was 82.0% and 78.0% and 73.5%; the “% efficacy” value (mancozeb 1.68 kg/ha, 14/14 d after first/last application, 26 d after planting, LEAUPP) is 83.8% and 72.3% and 85.9% and 76.0%. Moreover, the “% efficacy” value was 42.0% and 38.0% and 52.0% and 48.0% (mancozeb 1.68 kg/ha, 21/21 d after first/last application, 33 d after planting, LEALOW); 66.0% and 62.0% and 59.0% and 60.0% (mancozeb 1.68 kg/ha, 21/21 d after first/last application, 33 d after planting, LEAMID); 71.0% and 72.3% and 66.7% and 60.0% (mancozeb 1.68 kg/ha, 21/21 d after first/last application, 33 d after planting, LEAUPP); 28.0% and 35.0% and 32.0% and 25.0% (mancozeb 1.68 kg/ha, 28/7 d after first/last application, 40 d after planting, LEALOW); 62.0% and 56.0% and 54.0% and 49.0% (mancozeb 1.68 kg/ha, 28/7 d after first/last application, 40 d after planting, LEAMID); 82.1% and 74.2% and 73.7% and 68.9% (mancozeb 1.68 kg/ha, 28/7 d after first/last application, 40 d after planting, LEAUPP). The “% efficacy” value by setting is: (mancozeb 1.68 kg/ha, 35/14 d after first/last application, 47 d after planting, LEAMID) 48.0% and 36.0% and 32.0% and 43.0%; (mancozeb 1.68 kg/ha, 35/14 d after first/last application, 47 d after planting, LEAUPP) 72.6% and 67.0% and 59.0% and 54.8%; (mancozeb 1.68 kg/ha, 42/21 d after first/last application, 54 d after planting, LEAUPP) 54.0% and 43.0% and 52.0% and 38.0%.

The values above are taken from patent US11197479B2, “Use of silthiofam for the treatment of soybean rust” (priority 2018, dated 2021).
